Laboratory results taken from BindingDB's records for doi:10.1016/0960-894X(95)00403-G (1995).

Assay: Compound was tested for inhibiting [3H]N-Methyl-scopolamine Binding to Muscarinic acetylcholine receptor M4 in NG 108-15 Cell

In the case of `C[N+]1(C)CCC2(CC1)OC(=O)C(c1ccccc1)(c1ccccc1)O2`, the Ki is reported as 0.011 µM.
